From article PMC8103899, “Allyl Isothiocyanate: A TAS2R38 Receptor-Dependent Immune Modulator at the Interface Between Personalized Medicine and Nutrition” (Frontiers in Immunology, 2021)

Assays:
[1] = Human food intervention: AITC metabolite plasma levels after mustard intake (LC-ESI-MS/MS); format: in vivo; settings: single intake of an AITC containing food product
Description: AITC metabolite quantification was carried out in blood plasma samples derived from an intervention study at the University Medical Center in Freiburg, Germany. Samples were from 4 healthy young adults (3 females, 1 male, aged between 30-40 years) having a normal BMI, and were non-smokers. Each subject consumed one time 10 g of a commercially available mustard preparation ([…] Munich, Germany) containing 24.74 ± 1.76 μmol/g fresh weight preformed AITC on an empty stomach with optional consumption of white bread. The intervention was preceded by a 48 h wash-out phase consisting of a glucosinolate/ITC-free diet. After 30 min and optionally 60 min, blood was collected by venipuncture in serum tubes and centrifuged at 2000g for 10 min, 4°C to obtain serum. Subsequently, TFA was added and the samples frozen at -80°C. The preparation of serum samples (300 μL serum and 100 μL TFA) was conducted as described by Kühn et al. ([37]). The frozen samples were thawed, vortexed (1 min) and centrifuged (4 °C, 10 min, 20.854 x g). The supernatant was transferred to SPE cartridges. Prior to transferring, SPE cartridges were conditioned with acetonitrile (ACN, 3 mL) and equilibrated with water (3 mL). After sample application, the cartridges were washed with formic acid (FA, 3 mL, 0.1% in water) and the metabolites were eluted with FA (3 mL, 0.1% in ACN:water, 90:10, v/v). […] The samples were re-dissolved in 100 μL FA (0.1% in ACN:water, 90:10, v/v). Sample aliquots of 5 μL were injected into the LC-ESI-MS/MS system. LC-ESI-MS/MS analysis was performed on an API4000 triple quadrupole mass spectrometer (AB Sciex Germany GmbH, Darmstadt, Germany) equipped with an Agilent 1200 LC system (Agilent Technologies Deutschland GmbH & Co. KG, Waldbronn, Germany). For data acquisition and processing the software Analyst 1.6.1 (AB Sciex Germany GmbH, Darmstadt, Germany) was used. […] AITC-CysGly; AITC-Cys; AITC-NAC) was conducted according to Platz et al. ([38]) with minor modifications. The separation was performed on a Kinetex C18 column (Phenomenex, 5 μm, 100 Å, 150 x 2.1 mm). The autosampler operated at 4°C and the set temperature for the oven was 20°C. A constant flow of 300 μL/min was used for the mobile phase which consisted of 0.1% FA in water (A) and 0.1% FA in ACN (B). […] In order to equilibrate the column, A was increased to 90% and held for 5 min. The relevant MS parameters include an entrance potential of -10 V, a desolvation gas temperature of 450°C, ion spray potential of -4.5 kV, gas 1 and gas 2 at 46 psi and a curtain gas pressure at 10 psi.

E. coli K-12 = assay: Bactericidal activity of PBMC co-incubated with E. coli K-12 (DiBAC4(3) depolarization); format: cell-based, Escherichia coli; settings: MOI 0.5
Description: E. coli K-12 bacteria were grown in Luria-Bertani medium at 37°C to mid-logarithmic-phase as determined by OD600. Next, PBMC (1x10^6/mL) were incubated with E. coli K-12 at MOI 0.5 in RPMI 1640 medium supplemented with 2% heat-inactivated fetal calf serum and exposed to the test compounds for 120 min in a humidify condition (5% CO2, 37°C). Thereafter, 1 µg/mL of the membrane potential dye DiBAC4(3) was added and incubated for 10 min at room temperature in the dark. Subsequently, the cells were washed once with PBS and centrifuged at 4500 x g for 10 min. The percentage of depolarized bacteria was determined using a FACSCalibur™ flow cytometer with an excitation wavelength of 493 nm.
Figure 3 AITC stimulates NO production and exerts bactericidal activity in dependence of the TAS2R38 haplotype. […] Fluorescence signals (ex 488 nm, em 530± 30 nm) were monitored using a FACSCalibur™. The median fluorescence intensity (MFI) of each sample was calculated using FlowJo software (Ashland, Oregon, USA). […] Cell membrane potential depolarization was determined by staining bacteria with 1 µg/ml DiBAC4(3) for 10 min, in the dark at room temperature. […] Significance of difference was calculated relative to the respective control by one-way ANOVA. […]

What does the source list for C=CCN=C=S [AITC, allyl isothiocyanate]?
AITC plasma levels [1]: around one; bactericidal activity (E. coli K-12; AVI/AVI cells): no effect; bactericidal activity (E. coli K-12; PAV/PAV cells): increased bactericidal activity
